Results as given in US8816085B2 (Takeda GmbH, priority 2009, dated 2014).

Biological target: T1, PDE5A1 (human PDE5 from platelets) (Homo sapiens, UniProt O76074)
T1 construct: from tissue; host or cells: platelets from fresh blood of human donors (10,000 g supernatant of sonified platelets)
Assay: Inhibition of type 5 phosphodiesterase (PDE5) activity, modified SPA test
Assay type: biochemical
Conditions: PDE5-containing human platelet lysate, 0.5 μM cGMP, value classes, read-out: PDE5A1 inhibitory values [measured as −logIC50 (mol/l)] (converted)
Outline: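 Enzyme source: human platelet lysate (10,000 g supernatant), with 1 μM motapizone and 10 nM PDE2 inhibitor present. SPA format in 20 mM Tris pH 7.4, 5 mM Mg2+, 0.5 μM cGMP with [3H]cGMP tracer; 5 min preincubation at 37 °C, 15 min reaction, stopped with IBMX-containing beads. IC50 by non-linear regression.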

SMILES | IC50
CCC(=O)N[C@H]1CC[C@@H](NC(=O)c2c(C)[nH]c3c(-c4ccc(F)cc4OCC4CC4)ccnc23)CC1 [Example E17] | 1 to 10 nM
CCC(=O)N[C@H]1CC[C@@H](NC(=O)c2c(C)[nH]c3c(-c4cc(F)ccc4OCC4CC4)ccnc23)CC1 [Example E26, 7-[2-(Cyclopropylmethoxy)-5-fluorophenyl]-2-methyl-N-[cis-4-(propanoylamino)cyclohexyl]-1H-pyrrolo[3,2-b]pyridine-3-carboxamide] | 1 to 10 nM
CCC(=O)N[C@H]1CC[C@@H](NC(=O)c2c(C)[nH]c3c(-c4cc(C)ccc4OCC4CC4)ccnc23)CC1 [Example E59, 7-[2-(Cyclopropylmethoxy)-5-methylphenyl]-2-methyl-N-[cis-4-(propanoylamino)cyclohexyl]-1H-pyrrolo[3,2-b]pyridine-3-carboxamide] | 1 to 10 nM
COc1ccc(-c2ccnc3c(C(=O)N[C@H]4CC[C@H](NC(C)=O)CC4)c(C)[nH]c23)c(OCC2CC2)c1 [Example E34, N-[trans-4-(Acetylamino)cyclohexyl]-7-[2-(cyclopropylmethoxy)-4-methoxyphenyl]-2-methyl-1H-pyrrolo[3,2-b]pyridine-3-carboxamide] | < 1 nM
COc1ccc(OCC2CC2)c(-c2ccnc3c(C(=O)N[C@H]4CC[C@H](NC(C)=O)CC4)c(C)[nH]c23)c1 [Example E43, N-[trans-4-(Acetylamino)cyclohexyl]-7-[2-(cyclopropylmethoxy)-5-methoxyphenyl]-2-methyl-1H-pyrrolo[3,2-b]pyridine-3-carboxamide] | < 1 nM
COc1ccc(-c2ccnc3c(C(=O)N[C@H]4CC[C@@H](NC(=O)CO)CC4)c(C)[nH]c23)c(OCC2CC2)c1 [Example F24, 7-[2-(Cyclopropylmethoxy)-4-methoxyphenyl]-N-{cis-4-[(hydroxyacetyl)amino]cyclohexyl}-2-methyl-1H-pyrrolo[3,2-b]pyridine-3-carboxamide] | < 1 nM
COc1ccc(-c2ccnc3c(C(=O)NC4CCN(C(C)=O)CC4)c(C)[nH]c23)c(OCC2CC2)c1 [Example E31, N-(1-Acetylpiperidin-4-yl)-7-[2-(cyclopropylmethoxy)-4-methoxyphenyl]-2-methyl-1H-pyrrolo[3,2-b]pyridine-3-carboxamide] | < 1 nM
COc1ccc(-c2ccnc3c(C(=O)NC4CCN(C(=O)CO)CC4)c(C)[nH]c23)c(OCC2CC2)c1 [Example F20, 7-[2-(Cyclopropylmethoxy)-4-methoxyphenyl]-N-[1-(hydroxyacetyl)piperidin-4-yl]-2-methyl-1H-pyrrolo[3,2-b]pyridine-3-carboxamide] | < 1 nM
COc1cc(OCC2CC2)c(-c2ccnc3c(C(=O)NC4CCN(C(=O)[C@H](C)O)CC4)c(C)[nH]c23)cc1F [Example F51, 7-[2-(Cyclopropylmethoxy)-5-fluoro-4-methoxyphenyl]-N-{1-[(2S)-2-hydroxypropanoyl]piperidin-4-yl}-2-methyl-1H-pyrrolo[3,2-b]pyridine-3-carboxamide] | < 1 nM
COCC(=O)N1CC[C@@H](NC(=O)c2c(C)[nH]c3c(-c4cc(OC)c(F)cc4OCC4CC4)ccnc23)[C@H](O)C1 (relative stereo) [Example E75, 7-[2-(Cyclopropylmethoxy)-4-fluoro-5-methoxyphenyl]-N-[(3R*,4R*)-3-hydroxy-1-(methoxyacetyl)piperidin-4-yl]-2-methyl-1H-pyrrolo[3,2-b]pyridine-3-carboxamide] | < 1 nM
Cc1ccc(OCC2CC2)c(-c2ccnc3c(C(=O)NC4CCN(C(=O)CO)CC4)c(C)[nH]c23)c1 [Example F34, 7-[2-(Cyclopropylmethoxy)-5-methylphenyl]-N-[1-(hydroxyacetyl)piperidin-4-yl]-2-methyl-1H-pyrrolo[3,2-b]pyridine-3-carboxamide] | 1 to 10 nM
Cc1ccc(OCC2CC2)c(-c2ccnc3c(C(=O)N[C@H]4CC[C@H](NC(=O)CO)CC4)c(C)[nH]c23)c1 [Example F36, 7-[2-(Cyclopropylmethoxy)-5-methylphenyl]-N-{trans-4-[(hydroxyacetyl)amino]cyclohexyl}-2-methyl-1H-pyrrolo[3,2-b]pyridine-3-carboxamide] | 1 to 10 nM
COCC(=O)N1C[C@@H](O)[C@H](NC(=O)c2c(C)[nH]c3c(-c4cc(OC)c(F)cc4OCC4CC4)ccnc23)C1 (relative stereo) [Example E72, 7-[2-(Cyclopropylmethoxy)-4-fluoro-5-methoxyphenyl]-N-[(3R*,4R*)-4-hydroxy-1-(methoxyacetyl)pyrrolidin-3-yl]-2-methyl-1H-pyrrolo[3,2-b]pyridine-3-carboxamide] | < 1 nM
COc1cc(-c2ccnc3c(C(=O)N[C@H]4CC[C@H](NC(C)=O)CC4)c(C)[nH]c23)c(OCC2CC2)cc1F [Example E64, N-[trans-4-(Acetylamino)cyclohexyl]-7-[2-(cyclopropylmethoxy)-4-fluoro-5-methoxyphenyl]-2-methyl-1H-pyrrolo[3,2-b]pyridine-3-carboxamide] | < 1 nM
COCC(=O)N1CCC(NC(=O)c2c(C)[nH]c3c(-c4cc(C)ccc4OCC4CC4)ccnc23)CC1 [Example E54, 7-[2-(Cyclopropylmethoxy)-5-methylphenyl]-N-[1-(methoxyacetyl)piperidin-4-yl]-2-methyl-1H-pyrrolo[3,2-b]pyridine-3-carboxamide] | 1 to 10 nM
CC(=O)N[C@H]1CC[C@@H](NC(=O)c2c(C)[nH]c3c(-c4cc(C)ccc4OCC4CC4)ccnc23)CC1 [Example E58, N-[cis-4-(Acetylamino)cyclohexyl]-7-[2-(cyclopropylmethoxy)-5-methylphenyl]-2-methyl-1H-pyrrolo[3,2-b]pyridine-3-carboxamide] | 1 to 10 nM
Cc1ccc(OCC2CC2)c(-c2ccnc3c(C(=O)N[C@H]4CC[C@H](NC(=O)[C@H](C)O)CC4)c(C)[nH]c23)c1 [Example F37, 7-[2-(Cyclopropylmethoxy)-5-methylphenyl]-N-(trans-4-{[(2S)-2-hydroxypropanoyl]amino}cyclohexyl)-2-methyl-1H-pyrrolo[3,2-b]pyridine-3-carboxamide] | 1 to 10 nM
COCC(=O)N1CCC(NC(=O)c2c(C)[nH]c3c(-c4ccc(F)cc4OCC4CC4)ccnc23)CC1 [Example E12, 7-[2-(Cyclopropylmethoxy)-4-fluorophenyl]-N-[1-(methoxyacetyl)piperidin-4-yl]-2-methyl-1H-pyrrolo[3,2-b]pyridine-3-carboxamide] | 1 to 10 nM
CCC(=O)N1CCC(NC(=O)c2c(C)[nH]c3c(-c4cc(OC)c(F)cc4OCC4CC4)ccnc23)CC1 [Example E62, 7-[2-(Cyclopropylmethoxy)-4-fluoro-5-methoxyphenyl]-2-methyl-N-(1-propanoylpiperidin-4-yl)-1H-pyrrolo[3,2-b]pyridine-3-carboxamide] | < 1 nM
Cc1[nH]c2c(-c3cc(F)ccc3OCC3CC3)ccnc2c1C(=O)NC1CCN(C(=O)[C@H](C)O)CC1 [Example F13, 7-[2-(Cyclopropylmethoxy)-5-fluorophenyl]-N-{1-[(2S)-2-hydroxypropanoyl]piperidin-4-yl}-2-methyl-1H-pyrrolo[3,2-b]pyridine-3-carboxamide] | 1 to 10 nM
CCC(=O)N1CCC(NC(=O)c2c(C)[nH]c3c(-c4cc(F)c(OC)cc4OCC4CC4)ccnc23)CC1 [Example E77, 7-[2-(Cyclopropylmethoxy)-5-fluoro-4-methoxyphenyl]-2-methyl-N-(1-propionylpiperidin-4-yl)-1H-pyrrolo[3,2-b]pyridine-3-carboxamide] | < 1 nM
